# How the values were obtained:
# AtT-20 cells = assay: Cytotoxicity towards AtT-20 cells (PrestoBlue viability assay); conditions: for cytotoxicity on AtT-20 cells, in words (FIG. 6): 25 μM for 24 hours
# Source text: The AtT-20 cells viability was monitored in the conditions used to follow ACTH secretion. The viability of treated cells was concomitantly evaluated using a Cell Viability Reagent (monitoring of the cells' reducing capacity) (PrestoBlue® assay, Molecular Probes) with the aim to determine non-toxic doses of cell treatment.
# After the collection of the supernatant sample for the ACTH assay in the previous step, cells were supplemented with the PrestoBlue™ cell viability reagent (Invitrogen™ A13261) at 10% final volume, and re-incubated at 37° C. for 30 minutes. Fluorescence was then read with a FLUOstar OPTIMA microplate reader.
# [1] = target: T1, Full length USP8 (USP8FL) (Homo sapiens, UniProt P40818); assay: USP8FL (full length USP8) enzymatic inhibition, Ub-Rhodamine 110 hydrolysis in L-cysteine buffer; assay type: biochemical; conditions: USP8 FL 75 nM, Ub-Rho 0.1 μM, L-cysteine buffer; read-out: USP8FL inhbition IC50 [μM] (CI: Confidence Interval)
# T1 construct: purchased BostonBiochem E-520
# T1 sequence (P40818 1-1118): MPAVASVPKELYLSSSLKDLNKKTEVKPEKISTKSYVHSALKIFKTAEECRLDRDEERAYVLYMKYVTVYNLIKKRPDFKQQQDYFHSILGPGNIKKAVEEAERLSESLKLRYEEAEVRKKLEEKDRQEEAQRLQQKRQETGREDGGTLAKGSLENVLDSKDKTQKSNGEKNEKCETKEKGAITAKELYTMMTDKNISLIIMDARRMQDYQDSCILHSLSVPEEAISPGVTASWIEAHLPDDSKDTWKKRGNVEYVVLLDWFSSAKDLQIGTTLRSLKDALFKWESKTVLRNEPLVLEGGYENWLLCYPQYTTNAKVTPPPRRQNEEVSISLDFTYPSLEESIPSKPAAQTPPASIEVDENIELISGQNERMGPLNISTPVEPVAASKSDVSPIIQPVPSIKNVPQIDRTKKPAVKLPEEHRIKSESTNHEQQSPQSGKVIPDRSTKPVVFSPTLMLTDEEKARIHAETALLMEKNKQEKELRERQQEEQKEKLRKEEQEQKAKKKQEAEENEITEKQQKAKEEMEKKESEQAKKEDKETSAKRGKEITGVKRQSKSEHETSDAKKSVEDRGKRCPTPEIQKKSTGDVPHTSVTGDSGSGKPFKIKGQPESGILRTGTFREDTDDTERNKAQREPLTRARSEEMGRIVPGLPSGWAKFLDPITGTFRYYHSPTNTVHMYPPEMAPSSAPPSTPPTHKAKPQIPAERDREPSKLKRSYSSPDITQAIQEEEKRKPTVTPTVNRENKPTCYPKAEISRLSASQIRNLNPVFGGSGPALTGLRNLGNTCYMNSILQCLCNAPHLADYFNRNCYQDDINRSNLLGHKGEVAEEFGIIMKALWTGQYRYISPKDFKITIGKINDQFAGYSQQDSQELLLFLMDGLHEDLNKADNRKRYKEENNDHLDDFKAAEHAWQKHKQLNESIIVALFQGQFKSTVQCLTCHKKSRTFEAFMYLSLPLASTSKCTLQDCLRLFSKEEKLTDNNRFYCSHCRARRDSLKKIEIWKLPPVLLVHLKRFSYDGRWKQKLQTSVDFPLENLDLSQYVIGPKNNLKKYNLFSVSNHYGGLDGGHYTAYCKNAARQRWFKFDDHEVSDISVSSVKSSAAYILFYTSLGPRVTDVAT
# Experimental: USP8 FL (USP8 Full Length) was incubated at a concentration of 75 nM in the presence of Ub-Rho (UBIQUIGENT ref. 60-0117-050) at a final concentration of 0.1 μM, in conditions ensuring linearity of enzyme activity throughout the assay in a specific buffer. Compounds were added to the reaction mix at different doses just before the substrate. The enzymatic reaction kinetics were monitored by measuring fluorescence elicited by the hydrolysis of Ub-Rho over 30 min.
# In this setup, an in-house purified catalytic domain of USP8 (USP8CD) was used at a concentration of 80 nM in the presence of the artificial substrate Ubiquitin-Rhodamine 110 (Ub-Rho) (ref: 60-0117-050 Ubiquigent) at a final concentration of 0.1 μM, in conditions ensuring linearity of enzyme activity throughout the assay incubation time. Enzymatic assay was performed in a Tris HCl buffer (40 mM Tris HCl pH 7.4, Ovalbumine 0.5 mg/ml, Cysteine HCl 5.5 mM). Compounds to be tested were added to the reaction mix and incubated with enzyme for 20 min, before the substrate. The enzymatic reaction kinetics were monitored by measuring fluorescence elicited by the hydrolysis of the peptidyl Ub-Rho over 30 minutes. The negative control was the solvent DMSO at 1%.
# Full length USP8 (USPBFL) (BostonBiochem ref. E-520) were used at a concentration of 75 nM in the presence of a ubiquitin substrate, i.e., the Ub-Rhodamine 110 (Ub-Rho) (Ubiquigent ref. 60-0117-050) at a final concentration of 0.1 μM. Enzymatic assays were performed as described for USP8-CD except that USP-FL was used at a concentration of 75 nM. The compounds were used at a final concentration of 0.1, 1, 5, 10, 50 and 100 μM in DMSO 0.5%. The USP8 catalytic activity was monitored both before adding the substrate (TO) and after twenty minutes of incubation at room temperature (Final Time TF). The enzymatic reaction kinetics were monitored by measuring fluorescence elicited by the hydrolysis of the Ub-Rho bound over 30 minutes.
# AtT-20 pituitary cells = assay: Inhibition of ACTH secretion in pituitary cells (ACTH EIA on supernatant); assay type: cell-based, mouse; conditions: for activity at 25 µM: read-out: ACTH secretion % of control (DMSO) at 25 μM
# Experimental: ACTH release (percent comparison to DMSO control). Briefly, 12,500 AtT-20 cells per well were seeded in a 96-well plate. After 24 hours exposure, cells were treated with each compound at the indicated final concentration, or with DMSO alone (control condition compound solvent) or with corticotropin releasing factor (indicated CRF) at 100 nM. After a 24-hour treatment, cell supernatants were collected and stored at −80° C., prior to quantification of ACTH concentration using ACTH chemiluminescent EIA kit (Phoenix Pharmaceuticals, Inc.). Determination of ACTH concentrations was based on the best-fitting ACTH standard curve and P values were calculated using one-way ANOVA, using Prism 9 software (GraphPad Software, Inc.) ns (P=0.12). **P<0.002. ***P<0.001. All compounds were tested in technical triplicates. One representative experiment out of three is presented.
# FIG. 4: illustrates a decrease of ACTH secretion by AtT-20 cells after 24-hour treatment of halogenated salicylanilides. 12,500 AtT-20 cells per well were seeded in a 96-well plate. […] After a 24-hour treatment, cell supernatants were collected and stored at −80° C., prior to quantification of ACTH concentration using ACTH chemiluminescent EIA kit (Phoenix Pharmaceuticals, Inc.). Determination of ACTH concentrations was based on the best-fitting ACTH standard curve and P values were calculated by ordinary one-way ANOVA using Prism 6 software (GraphPad Software, Inc), ns (not significant), **** P<0.0001. Compounds were tested in technical triplicates.
# 12,500 AtT-20 cells per well were seeded in a 96-well plate. After 24 hours, cells were treated with compounds (corresponding chemical formula are indicated in Table 1) at 25 μM final concentration, or with DMSO alone (compound solvent). After a 24-hour treatment, cell supernatants were collected and stored at −80° C., prior to quantification of ACTH concentration using ACTH chemiluminescent EIA kit (Phoenix Pharmaceuticals, Inc.). Determination of ACTH concentrations was based on the best-fitting ACTH standard curve and P values were calculated by ordinary one-way ANOVA using Prism 6 software (GraphPad Software, Inc), ns (not significant), *P<0.05, ***P<0,0001. Compounds were tested in technical triplicates.
# Mouse AtT-20 pituitary cell line were used as a powerful and well-characterized model to monitor ACTH secretion using an enzyme immunoassay (EIA) kit.
# Mouse AtT-20 cells were obtained from the American Type Culture Collection and maintained on DMEM containing 10% fetal bovine serum, 100 μg/mL streptomycin and 100 U/mL penicillin at 37° C. with 5% CO2 after recovery from long-term storage on liquid nitrogen-vapor phase.
# The ACTH secretion levels of AtT-20 cell culture was monitored on the supernatant of AtT-20 cells treated or not by increasing doses of compounds belonging to the family of halogenated salicylanilides chemicals.
# 1.25×10^4 AtT20 cells were seeded on polylysine-coated 96-well culture vessels on 150 μL of complete medium. After 24 hours, cells were treated with stock compounds to a final DMSO concentration of 0.5%. After 24 hours of treatment, cell culture supernatant was collected, cleared for 10 min at 1000×g at 4° C., diluted or not in assay buffer (Phoenix Peptide ACTH EIA EK-001-21) and frozen at −80° C. for subsequent processing according to the instructions of the kit's manufacturer.
# [2] = Mus musculus, AtT20, 24-hour treatment, AtT-20 supernatant
compound,measurement,setting,value
O=C(Nc1ccc(Cl)cc1)c1cc(I)cc(I)c1O [Amb1935028],"cytotoxicity on AtT-20 cells, in words (FIG. 6)",AtT-20 cells,partially cytotoxic
same,AtT-20 cell viability (PrestoBlue assay) % of control (DMSO) at 25 μM Mean (SD),AtT-20 cells; 24-hour exposure,58.81 (34.11) %
same,IC50,[1],11.9 µM
same,"inhibition of ACTH at 25 μM, in words (FIG. 4, FIG. 5)",AtT-20 pituitary cells; 24-hour treatment,significant inhibition
same,activity at 25 µM,AtT-20 pituitary cells; [2],32%
Cc1ccc(C(=O)c2cc(NC(=O)c3cc(I)cc(I)c3O)ccc2Cl)cc1 [Amb4103735],AtT-20 cell viability (PrestoBlue assay) % of control (DMSO) at 25 μM Mean (SD),AtT-20 cells; 24-hour exposure,109.4 (18.18) %
same,IC50,[1],3.41 µM
same,"inhibition of ACTH at 25 μM, in words (FIG. 4, FIG. 5)",AtT-20 pituitary cells; 24-hour treatment,significant inhibition
same,activity at 25 µM,AtT-20 pituitary cells; [2],58%
O=C(Nc1cc(Cl)ccc1Cl)c1cc(I)cc(I)c1O [Amb8477378],AtT-20 cell viability (PrestoBlue assay) % of control (DMSO) at 25 μM Mean (SD),AtT-20 cells; 24-hour exposure,95.72 (11.42) %
same,IC50,[1],13 µM
same,"inhibition of ACTH at 25 μM, in words (FIG. 4, FIG. 5)",AtT-20 pituitary cells; 24-hour treatment,significant inhibition
same,activity at 25 µM,AtT-20 pituitary cells; [2],41%
Cc1ccc(NC(=O)c2cc(I)cc(I)c2O)cc1 [Amb8477380],AtT-20 cell viability (PrestoBlue assay) % of control (DMSO) at 25 μM Mean (SD),AtT-20 cells; 24-hour exposure,93.51 (11.59) %
same,IC50,[1],14.6 µM
same,"inhibition of ACTH at 25 μM, in words (FIG. 4, FIG. 5)",AtT-20 pituitary cells; 24-hour treatment,significant inhibition
same,activity at 25 µM,AtT-20 pituitary cells; [2],66%
O=C(Nc1cc(Cl)cc(Cl)c1)c1cc(I)cc(I)c1O [Amb8477462],AtT-20 cell viability (PrestoBlue assay) % of control (DMSO) at 25 μM Mean (SD),AtT-20 cells; 24-hour exposure,67.96 (17.52) %
same,IC50,[1],8.98 µM
same,"inhibition of ACTH at 25 μM, in words (FIG. 4, FIG. 5)",AtT-20 pituitary cells; 24-hour treatment,significant inhibition
same,activity at 25 µM,AtT-20 pituitary cells; [2],31%
O=C(Nc1ccc(Cl)cc1Cl)c1cc(I)cc(I)c1O [Amb8487151],AtT-20 cell viability (PrestoBlue assay) % of control (DMSO) at 25 μM Mean (SD),AtT-20 cells; 24-hour exposure,89.58 (10.11) %
same,IC50,[1],4.34 µM
same,"inhibition of ACTH at 25 μM, in words (FIG. 4, FIG. 5)",AtT-20 pituitary cells; 24-hour treatment,significant inhibition
same,activity at 25 µM,AtT-20 pituitary cells; [2],44%
"CC(=O)Oc1c(I)cc(I)cc1C(=O)Nc1ccc(Cl)cc1 [Clioxanide, reference compound]",AtT-20 cell viability (PrestoBlue assay) % of control (DMSO) at 25 μM Mean (SD),AtT-20 cells; 24-hour exposure,94.21 (12.30) %
same,IC50,[1],33.2 µM
same,"inhibition of ACTH at 25 μM, in words (FIG. 4, FIG. 5)",AtT-20 pituitary cells; 24-hour treatment,significant inhibition
same,activity at 25 µM,AtT-20 pituitary cells; [2],57%
"O=C(Nc1ccc([N+](=O)[O-])cc1Cl)c1cc(Cl)ccc1O [Niclosamide, reference compound]","toxicity in AtT-20 cells, in words",AtT-20 cells; 0.5 μM,no significant toxicity
same,"toxicity in AtT-20 cells, in words",AtT-20 cells; 1.0 μM,no significant toxicity
same,AtT-20 cell viability (PrestoBlue assay) % of control (DMSO) (at 27 μM) Mean (SD),"AtT-20 cells; 27 μM, 24-hour exposure","50% (12,40) (at 27 μM)"
same,"dose-dependent viability assay, in words (FIG. 7)","AtT-20 cells; AtT-20 cells, 24-hour exposure, several doses",considerable effects on viability upon higher doses
same,IC50,[1],61 µM
same,reduction of ACTH secretion levels,AtT-20 pituitary cells; 0.5 μM,27%
same,reduction of ACTH secretion levels,AtT-20 pituitary cells; 1.0 μM,41%
same,"inhibition of ACTH at 25 μM, in words (FIG. 4, FIG. 5)",AtT-20 pituitary cells; 24-hour treatment,significant inhibition
same,activity at 27 µM,"AtT-20 pituitary cells; Mus musculus, AtT20, 27 μM, 24-hour treatment, AtT-20 supernatant, read-out: ACTH secretion % of control (DMSO) (at 27 μM)",41%
same,dose-dependent inhibition of ACTH (FIG. 3),"AtT-20 pituitary cells; increasing concentrations, 24-hour treatment",significant dose-dependent inhibition
Cc1ccc(NC(=O)c2cc(Cl)ccc2O)cc1 [OSSL-122817],"inhibition of ACTH at 25 μM, in words (FIG. 4, FIG. 5)",AtT-20 pituitary cells; 24-hour treatment,ineffective
same,activity at 25 µM,AtT-20 pituitary cells; [2],118%
"O=C(Nc1ccc(Oc2ccc(Cl)cc2)c(Cl)c1)c1cc(I)cc(I)c1O [Rafoxanide, reference compound]","cytotoxicity on AtT-20 cells, in words (FIG. 6)",AtT-20 cells,partially cytotoxic
same,AtT-20 cell viability (PrestoBlue assay) % of control (DMSO) at 25 μM Mean (SD),"AtT-20 cells; 24-hour exposure, listed as Rafoxanide Amb2704313",39.30 (6.852) %
same,AtT-20 cell viability (PrestoBlue assay) % of control (DMSO) at 25 μM Mean (SD),"AtT-20 cells; 24-hour exposure, listed as Rafoxanide MCE HY-17598",56.15 (3.536) %
same,"inhibition of ACTH at 25 μM, in words (FIG. 4, FIG. 5)",AtT-20 pituitary cells; 24-hour treatment,significant inhibition
same,ACTH secretion % of control (DMSO) at 25 μM,"AtT-20 pituitary cells; 24-hour treatment, AtT-20 supernatant, listed as Rafoxanide Amb2704313, 25 µM",33%
same,ACTH secretion % of control (DMSO) at 25 μM,"AtT-20 pituitary cells; 24-hour treatment, AtT-20 supernatant, listed as Rafoxanide MCE HY-17598, 25 µM",57%

# From patent US20260207535A1, “CRIBLAGE INHIBITEURS USP8” (COMMISSARIAT A L'ENERGIE ATOMIQUE ET AUX ENERGIES …, priority 2022, published 2026)
